One test addresses Human Factor D (Homo sapiens (Human), UniProt P00746). As to the kind of experiment: Human Factor D assay. Format: biochemical. As to conditions: Table 3; Factor D inhibition, substrate Z-L-Lys-SBzl. Put shortly: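 Serum-purified human factor D (80 nM final) preincubated 5 min at room temperature with test compound in 50 mM Tris, 1M NaCl, pH 7.5. Z-L-Lys-SBzl substrate and DTNB then added, each at 100 μM final. IC50 from nonlinear regression of reaction rate against compound concentration.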
Chain of Human Factor D (P00746 26-253): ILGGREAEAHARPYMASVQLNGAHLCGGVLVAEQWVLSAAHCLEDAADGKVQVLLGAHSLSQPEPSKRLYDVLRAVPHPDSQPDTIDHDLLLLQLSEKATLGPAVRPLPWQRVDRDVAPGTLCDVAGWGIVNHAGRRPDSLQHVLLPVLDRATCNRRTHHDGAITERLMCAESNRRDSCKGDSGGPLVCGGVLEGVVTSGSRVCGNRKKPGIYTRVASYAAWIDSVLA
As usually defined, the IC50 is the concentration needed to halve the response being measured. Lower therefore signals greater potency in that assay. With `CC(=O)c1cn(CC(=O)N2C[C@H](F)C[C@H]2C(=O)Nc2cccc(-c3ccccc3Cl)c2F)c2ccc(-c3cnc(O[C@@H]4CO[C@H]5[C@@H]4OC[C@H]5O)nc3)cc12` [Compound 501, (2S,4R)-1-(2-(3-Acetyl-5-(2-((3R,3aR,6R,6aR)-6-hydroxyhexahydrofuro[3,2-b]furan-3-yloxy)pyrimidin-5-yl)-1H-indol-1-yl)acetyl)-N-(2′-chloro-2-fluorobiphenyl-3-yl)-4-fluoropyrrolidine-2-carboxamide], the concentration for half-maximal inhibition (IC50) is less than 1 µM.

`CO[C@@H]1CO[C@H]2[C@@H]1OC[C@H]2Oc1ncc(-c2ccc3c(c2)c(C(C)=O)cn3CC(=O)N2C[C@H](F)C[C@H]2C(=O)Nc2cccc(Br)n2)cn1` [Compound 508, (2S,4R)-1-(2-(3-Acetyl-5-(2-((3R,3aR,6R,6aR)-6-methoxyhexahydrofuro[3,2-b]furan-3-yloxy)pyrimidin-5-yl)-1H-indol-1-yl)acetyl)-N-(6-bromopyridin-2-yl)-4-fluoropyrrolidine-2-carboxamide] came in with a concentration for half-maximal inhibition (IC50) of less than 1 µM.

As to `CC(=O)c1nn(CC(=O)N2CCC[C@@H]2CC(=O)O)c2ccc(-c3cnc(C)nc3)cc12` [Compound 510, (R)-2-(1-(2-(3-acetyl-5-(2-methylpyrimidin-5-yl)-1H-indazol-1-yl)acetyl)pyrrolidin-2-yl)acetic acid], the half-maximal inhibitory concentration (IC50) is greater than 10 µM.

`CC(=O)c1nn(CC(=O)N2C[C@H](F)C[C@H]2C(=O)SCc2cccc(Cl)c2F)c2ccc(-c3cnc(C)nc3)cc12` [Compound 516, S-(3-Chloro-2-fluorobenzyl) (2S,4R)-1-(2-(3-acetyl-5-(2-methylpyrimidin-5-yl)-1H-indazol-1-yl)acetyl)-4-fluoropyrrolidine-2-carbothioate] returned an IC50 of 1 to 10 µM.

Regarding `CC(=O)c1nn(CC(=O)N2C[C@H](F)C[C@H]2C(=O)Nc2cccc(S(F)(F)(F)(F)F)c2)c2ccc(-c3cnc(C)nc3)cc12` [Compound 504, (2S,4R)-1-(2-(3-Acetyl-5-(2-methylpyrimidin-5-yl)-1H-indazol-1-yl)acetyl)-4-fluoro-N-(3-(pentafluoro-λ^6-sulfanyl)phenyl)pyrrolidine-2-carboxamide], the IC50 is less than 1 µM.

The test is the same for the next values; noted with them: Table 4; Factor D inhibition, substrate Z-L-Lys-SBzl.
Turning to `Cc1cccc(NC(=O)[C@@H]2CCC(F)CCN2C(=O)Cn2cc(C(N)=O)c3cc(-c4cccc(C#N)c4)ccc32)n1` (stereo partly drawn) [Compound 591, 5-(3-Cyanophenyl)-1-(2-((2S)-5-fluoro-2-(6-methylpyridin-2-ylcarbamoyl)azepan-1-yl)-2-oxoethyl)-1H-indole-3-carboxamide], the concentration for half-maximal inhibition (IC50) is greater than 10 µM.

`C/C(=N\O)c1nn(CC(=O)N2C[C@H](F)C[C@H]2C(=O)Nc2cccc(Br)n2)c2ccc(-c3cnc(C)nc3)cc12` [Compound 555, (2S,4R)—N-(6-Bromopyridin-2-yl)-4-fluoro-1-(2-(3-((E)-1-(hydroxyimino)ethyl)-5-(2-methylpyrimidin-5-yl)-1H-indazol-1-yl)acetyl)pyrrolidine-2-carboxamide] showed a 50% inhibitory concentration (IC50) of less than 1 µM.

The molecule `CC(=O)c1nn(CC(=O)N2C[C@H](F)C[C@H]2C(=O)OCc2ccc(Br)nc2N)c2ccc(-c3cnc(C)nc3)cc12` [Compound 570, (2S,4R)-(2-amino-6-bromopyridin-3-yl)methyl 1-(2-(3-acetyl-5-(2-methylpyrimidin-5-yl)-1H-indazol-1-yl)acetyl)-4-fluoropyrrolidine-2-carboxylate] displayed an IC50 greater than 10 µM.

Regarding `CC(=O)c1nn(CC(=O)N2C[C@H](F)C[C@H]2C(=O)Nc2nc(Br)ccc2C)c2ccc(-c3cnc(N)nc3)cc12` [Compound 553, (2S,4R)-1-(2-(3-acetyl-5-(2-aminopyrimidin-5-yl)-1H-indazol-1-yl)acetyl)-N-(6-bromo-3-methylpyridin-2-yl)-4-fluoropyrrolidine-2-carboxamide], the IC50 was less than 1 µM.

`CC(=O)c1nn(CC(=O)N2C[C@H](F)C[C@H]2C(=O)Nc2cccc(-c3ccccc3Cl)c2F)c2ccc(N3CCn4c(nnc4C(F)(F)F)C3)cc12` [Compound 619, (2S,4R)-1-(2-(3-acetyl-5-(3-(trifluoromethyl)-5,6-dihydro-[1,2,4]triazolo[4,3-a]pyrazin-7(8H)-yl)-1H-indazol-1-yl)acetyl)-N-(2′-chloro-2-fluoro-[1,1′-biphenyl]-3-yl)-4-fluoropyrrolidine-2-carboxamide] gave an IC50 of less than 1 µM.

Consider `CC(=O)c1nn2c3ccc(cc13)-c1cnc(nc1)NCCCCCCCCCCCc1cc(Cl)c(F)c(c1)CNC(=O)[C@@H]1C[C@@H](F)CN1C(=O)C2` [Compound 541], for which the IC50 was greater than 10 µM.

As to `CC(=O)c1nn(CC(=O)N2C[C@H](F)C[C@H]2C[S+]([O-])c2cccc(Br)n2)c2ccc(-c3cnc(C)nc3)cc12` (stereo partly drawn) [Compound 604, 2-(3-Acetyl-5-(2-methylpyrimidin-5-yl)-1H-indazol-1-yl)-1-((2S,4R)-2-(((6-bromopyridin-2-yl)sulfinyl)methyl)-4-fluoropyrrolidin-1-yl)ethan-1-one], the IC50 fell in the range of 1 to 10 µM.

As for `CC(=O)c1nn(CC(=O)N2C[C@H](F)C[C@H]2C(=O)Nc2cccc(-c3cc(F)ccc3S(C)(=O)=O)c2F)c2ccc(-c3cnc(C)nc3)cc12` [Compound 539, (2S,4R)-1-(2-(3-acetyl-5-(2-methylpyrimidin-5-yl)-1H-indazol-1-yl)acetyl)-N-(2,5′-difluoro-2′-(methylsulfonyl)-[1,1′-biphenyl]-3-yl)-4-fluoropyrrolidine-2-carboxamide], the 50% inhibitory concentration (IC50) is less than 1 µM.

Molecule `Cc1ccc(-c2ccc3c(c2)c(C(N)=O)cn3CC(=O)N2CCC(F)CC[C@H]2C(=O)Nc2cccc(C)n2)cn1` (stereo partly drawn) [Compound 586, 1-(2-((2S)-5-Fluoro-2-((6-methylpyridin-2-yl)carbamoyl)azepan-1-yl)-2-oxoethyl)-5-(6-methylpyridin-3-yl)-1H-indole-3-carboxamide] registered a concentration for half-maximal inhibition (IC50) greater than 10 µM.

`CCOP(=O)(OCC)OC[C@@]12C[C@@H]1N(C(=O)Cn1nc(C(C)=O)c3cc(-c4cnc(C)nc4)ccc31)[C@H](C(=O)Nc1cccc(Br)n1)C2` [Compound 581, ((1S,3S,5R)-2-(2-(3-Acetyl-5-(2-methylpyrimidin-5-yl)-1H-indazol-1-yl)acetyl)-3-(6-bromopyridin-2-ylcarbamoyl)-2-azabicyclo[3.1.0]hexan-5-yl)methyl Diethyl Phosphate] displayed an IC50 of 1 to 10 µM.

Molecule `CC(=O)c1nn(CC(=O)N2C[C@H](F)C[C@H]2CNC(=O)c2cccc(Cl)c2F)c2ccc(-c3cnc(C)nc3)cc12` [Compound 562, N-(((2S,4R)-1-(2-(3-acetyl-5-(2-methylpyrimidin-5-yl)-1H-indazol-1-yl)acetyl)-4-fluoropyrrolidin-2-yl)methyl)-3-chloro-2-fluorobenzamide] returned an IC50 greater than 10 µM.

In the case of `CC(=O)c1nn(CC(=O)N2C[C@H](F)C[C@@H]2c2nc3nc(Br)ccc3[nH]2)c2ccc(-c3cnc(C)nc3)cc12` [Compound 565, 2-(3-Acetyl-5-(2-methylpyrimidin-5-yl)-1H-indazol-1-yl)-1-((2R,4R)-2-(5-bromo-1H-imidazo[4,5-b]pyridin-2-yl)-4-fluoropyrrolidin-1-yl)ethan-1-one], the half-inhibitory concentration (IC50) was greater than 10 µM.

As for `Cc1cccc(NC(=O)[C@@H]2CCC(F)CCN2C(=O)Cn2cc(C(N)=O)c3cc(-c4cnc5c(c4)CCC5)ccc32)n1` (stereo partly drawn) [Compound 593, 5-(6,7-Dihydro-5H-cyclopenta[b]pyridin-3-yl)-1-(2-((2S)-5-fluoro-2-((6-methylpyridin-2-yl)carbamoyl)azepan-1-yl)-2-oxoethyl)-1H-indole-3-carboxamide], the IC50 is greater than 10 µM.

In turn, `CC(=O)c1nn(CC(=O)N2C[C@H](F)C[C@H]2c2nnc(CCCC(F)(F)F)[nH]2)c2ccc(-c3cnc(C)nc3)cc12` [Compound 584, 2-(3-Acetyl-5-(2-methylpyrimidin-5-yl)-1H-indazol-1-yl)-1-((2S,4R)-4-fluoro-2-(5-(4,4,4-trifluorobutyl)-4H-1,2,4-triazol-3-yl)pyrrolidin-1-yl)ethan-1-one] yielded an IC50 of 1 to 10 µM.

Molecule `Cc1cccc(NC(=O)[C@@H]2CCC(F)CCN2C(=O)Cn2cc(C(N)=O)c3cc(-c4ccc5c(c4)CCCC5)ccc32)n1` (stereo partly drawn) [Compound 589, 1-(2-((2S)-5-fluoro-2-((6-methylpyridin-2-yl)carbamoyl)azepan-1-yl)-2-oxoethyl)-5-(5,6,7,8-tetrahydronaphthalen-2-yl)-1H-indole-3-carboxamide] returned an IC50 greater than 10 µM.

With `COP(=O)(CC(=O)c1nn(CC(=O)N2C[C@H](F)C[C@H]2C(=O)Nc2cccc(Br)n2)c2ccc(-c3cnc(C)nc3)cc12)OC` [Compound 625, dimethyl (2-(1-(2-((2S,4R)-2-((6-bromopyridin-2-yl)carbamoyl)-4-fluoropyrrolidin-1-yl)-2-oxoethyl)-5-(2-methylpyrimidin-5-yl)-1H-indazol-3-yl)-2-oxoethyl)phos-phonate], the IC50 is greater than 10 µM.

The molecule `Cc1ncc(-c2ccc3c(c2)c(C(C)O)nn3CC(=O)N2C[C@H](F)C[C@H]2C(=O)O)cn1` (stereo partly drawn) [Compound 631, (2S,4R)-4-Fluoro-1-(2-(3-(1-hydroxyethyl)-5-(2-methylpyrimidin-5-yl)-11-indazol-1-yl)acetyl)pyrrolidine-2-carboxylic Acid] yielded an IC50 greater than 10 µM.

Turning to `Cc1cccc(NC(=O)[C@@H]2CCC(F)CCN2C(=O)Cn2cc(C(N)=O)c3cc(-c4ccc(F)nc4)ccc32)n1` (stereo partly drawn) [Compound 590, 1-(2-((2S)-5-Fluoro-2-((6-methylpyridin-2-yl)carbamoyl)azepan-1-yl)-2-oxoethyl)-5-(6-fluoropyridin-3-yl)-1H-indole-3-carboxamide], the 50% inhibitory concentration (IC50) was greater than 10 µM.

`Cc1cccc(NC(=O)[C@@H]2CCC(F)CCN2C(=O)Cn2cc(C(N)=O)c3cc(-c4ccc5c(c4)CC5)ccc32)n1` (stereo partly drawn) [Compound 587, 5-(1,2-Dihydrocyclobutabenzen-4-yl)-1-(2-((2S)-5-fluoro-2-(6-methylpyridin-2-ylcarbamoyl)azepan-1-yl)-2-oxoethyl)-1H-indole-3-carboxamide] came in with an IC50 greater than 10 µM.
